Data set [1] deals with open-chest, anaesthetized cats. The data set is described as follows: MCF-increasing effect in open-chest, anaesthetized cats (strain gauge arch on left ventricle). The class given is in vivo, cat. The following applies: Felis catus, iv; 5 mg/kg i.v., open-chest anaesthetized cats; read-out: Increase in MCF as % of the initial value. Here is the method: (A) Investigation on anaesthetized cats
The animals were intravenously (i.v.) anaesthetized by 30 mg/kg of pentobarbital-sodium. After arranging the artificial respiration, the chest and pericardium were opened. A strain gauge arch was sutured onto the epicardial surface of the left ventricle [J. Pharm. Exp. Ther. 90, 26 (1947)]. The blood pressure was measured by a catheter inserted to the femoral artery and joined to a P 23 Db pressure transducer and electromanometer. The test compounds were administered either i.v. through a femoral vein cannule, or intraduodenally (i.d.) through the duodenum cannule. At the beginning of the experiment, 0.2 μg/kg of isoproterenol (IS) was i.v. given as an internal standard for checking the myocardial reactivity. Namely, the value of the peak MCF response can also be altered according to the individual animals in the case of each positive inotropic agent. Thus, IS was not used as a real reference drug.
The MCF responses were expressed in the percentage changes of the initial value: the effect on MCF of 5 mg/kg i.v. of the test compound was compared to that of 0.2 μg/kg i.v. of IS.

Data set [2] relates to anaesthetized open-chest dogs. Description: Investigation on anaesthetized open-chest dogs (MCF, coronary flow, blood pressure, heart rate). The class given is in vivo, dog. Here is the method:
(B) Investigation on anaesthetized dogs
The animals were i.v. anaesthetized by 35 mg/kg of pentobarbital-sodium. After opening the chest and pericardium, the lower ascending part of the left circumflex coronary artery was prepared and fitted with an electromagnetic flow probe for measuring the blood flow in the coronary artery. A strain gauge arch was placed onto the area supplied by this coronary artery for measuring the MCF. For determining the systemic blood pressure a femoral arterial cannule, for i.v. drug administration a femoral venous cannule was used. The dp/dt value was calculated from the pressure measured by a Millar type pressure transducer introduced to the left ventricle. All parameters were registered on a Beckman R 12 8-channel dynograph.

For another data set, the system named is conscious cats. The data set is described as follows: Investigation on chronically catheterized conscious cats. The class given is in vivo, cat. The following applies: oral 0.5 to 8.0 mg/kg. The source says: (C) Investigation on conscious cats
These animals were used according to either the method of Rabloczky and Mader ("Measurement of Systemic and Pulmonary Arterial Pressure in Conscious Animals", lecture on Congress of the International Union of Pharmacologists, Budapest, 1980) or to some modification thereof. The aorta and pulmonary artery were chronically catheterized for measuring both blood pressures. In the modification, the right ventricle was also catheterized for determining the dp/dtmax value.

The test system of the next data set is Ca-ATP-ase. The data set is described as follows: Ca-ATP-ase activity ex vivo after 5 days i.p. treatment. Format: in vivo. The following applies: 2 mg/kg i.p. daily for 5 days; corrected to 1 g of heart tissue. Here is the method:
The activity of this enzyme was measured according to Mc Namara [J. Biochem. 75, 795 (1974)].
In another experiment, compound 22 was given in a 2 mg/kg i.p. daily dose for 5 days. After taking an ex vivo sample, the enzyme activity was found as decreased by 30% (as corrected to 1 g of heart tissue).

A short description of data set [3]: Acute toxicity (LD50) in mice. The following applies: mouse, in vivo. The source says:
(§1) The acute toxicity data of compound 22 are given as LD50 values in Table 2.

A short description of data set [4]: Acute toxicity (LD50) in rats. The conditions noted are these: rat, in vivo.
Excerpt: as §1

Each structure is given as a SMILES string. Where a name gives a salt, the structure may show the parent alone.

Regarding `Cc1nc(NCCN2CCOCC2)c2c(n1)NC(=O)CO2` [Example 22, 2-Methyl-4-[2-(4-morpholinyl)-ethyl]-amino-6,7-dihydro-8H-pyrimido[5,4-b][1,4]oxazin-7-one dihydrochloride], the change in vivo at 5 mg/kg in data set [1] was determined as 70%. In data set [2] (1 mg/kg i.d.), the MCF increase is recorded as 35 to 40%. For the same compound, the “MCF effect relative to amrinone” value in data set [2] (i.d. administration) was “at least 5 times”. Further, in the data set with conscious cats, the “peak increase in dp/dtmax” value is recorded as “about 60%”. Further, in the data set on Ca-ATP-ase, the “Ca-ATP-ase enzyme activity decrease, ex vivo sample” value is 30%. Besides, the LD50 (commonly the dose at which mortality reaches 50%) in data set [3] (ip, Female) was determined as 573 mg/kg; in data set [3] (ip, Male), 572 mg/kg; in data set [3] (iv, Female), 340 mg/kg; in data set [3] (iv, Male), 324 mg/kg; in data set [3] (po, Female), 1420 mg/kg; in data set [3] (po, Male), 1360 mg/kg. In addition, the LD50 came to 260 mg/kg in data set [4] (ip, Female); 315 mg/kg in data set [4] (ip, Male); 232 mg/kg in data set [4] (iv, Female); 253 mg/kg in data set [4] (iv, Male); 810 mg/kg in data set [4] (po, Female); 830 mg/kg in data set [4] (po, Male).

(Values after patent publication US4748175A, “Pyrimido[5,4-B][1,4]oxazine derivatives and pharmaceutical compositions containing them” (priority 1985, dated 1988).)
